# Measurements from patent US5037830A, “Novel thiouracyl derivatives, pharmaceutical compositions containing them and process for preparing same” (Richter Gedeon Vegyeszeti Gyar RT, priority 1989, dated 1991).
# Read-outs that look alike come from different tables or passages of the source.
# Columns and labels:
# [1] = tested on: spontaneous gastric acid secretion; test: Gastric acid secretion-inhibiting effect according to Shay's method; type: in vivo, female OFA rats; conditions: for Gastric acid, change / Gastric juice, change: vs control; for Gastric acid, treated: titration with 0.1N NaOH
# Procedure: After being starved for 24 hours, female OFA rats weighing 130 to 160 g were orally treated with the compounds to be tested. (15 animals were used for each dose.) One hour later laparotomy and pylorus ligature were carried out under ether anaesthesia according to Shay [Gastroenterology 5, 43 (1945)]. After 5 hours the animals were killed by an overdose of ether, their stomaches were excised and the volume and acid content of the gastric juice were determined. The acid was measured by titration with 0.1N NaOH, by using Topfer's indicator.
# [2] = tested on: histamine-induced gastric acid secretion; test: Inhibition of the histamine-induced gastric acid secretion in rats; type: in vivo, male OFA rats; conditions: for Gastric acid, change / Gastric juice, change: vs control; for Gastric juice, treated: histamine 5 mg/kg/hour;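 as to Gastric acid, treated: dosed 30 min before a 5 hour experiment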
# Procedure: (§1) After being starved for 24 hours, male OFA rats weighing 250 to 320 g were anaestethized by 40% urethane (0.5 ml/100 g), then the trachea and jugular vein were cannulated (10 animals were used for each dose). A glass cannula was inserted to the stomach from the direction of the pylorus. The stomach was washed with lukewarm water and then purified by air blown through. The gastric acid secretion was induced by an infusion of histamine (5 mg/kg/hour), or pentagastrin (0.05 mg/kg/hour) or carbachol (0.01 mg/kg/hour), respectively. […]
# [3] = tested on: pentagastrin-induced gastric acid secretion; test: Inhibition of the pentagastrin-induced gastric acid secretion in rats; type: in vivo, male OFA rats; conditions: for Gastric acid, change / Gastric juice, change: vs control; for Gastric juice, treated: pentagastrin 0.05 mg/kg/hour;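 as to Gastric acid, treated: dosed 30 min before a 5 hour experiment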
# Procedure: as §1
# [4] = tested on: carbachol-induced gastric acid secretion; test: Inhibition of the carbachol-induced gastric acid secretion in rats; type: in vivo, male OFA rats; conditions: for Gastric acid, change / Gastric juice, change: vs control; for Gastric juice, treated: carbachol 0.01 mg/kg/hour;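 as to Gastric acid, treated: dosed 30 min before a 5 hour experiment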
# Procedure: as §1
# [5] = tested on: necrosis induced by ethanol containing hydrochloric acid; test: Cytoprotective effect (modified Robert's test); type: in vivo; conditions: for Bleedings, change: vs control
# Procedure: The modified Robert's test [Gastroenterology 17, 761 (1979)] was used. The necrotizing agent (100 ml of abs. ethanol containing 2 ml of concentrated hydrochloric acid) was orally administered in a volume of 0.5 ml/100 g by 30 minutes after giving the compound to be tested. (12 animals were used for each dose.) After 1 hour the animals were killed by ether and the bleedings on the glandular part of their stomach were evaluated.
# [6] = tested on: gastric ulcer after pylorus ligature; test: Gastric ulcer-inhibiting effect in rats operated according to Shay's method; type: in vivo, female OFA rats; conditions: for ED50: Rattus norvegicus, po, 18 h, p.o.
# Procedure: Female OFA rats starved for 24 hours weighing 150 to 160 g were used. (The animals were allowed to drink water ad libitum). The animals were orally treated with the substance to be tested and after 1 hour laparotomy and pylorus ligature according to Shay [Gastroenterology 5, 43 (1945)] were performed under ether anaesthesia. After 18 hours the number and size of ulcers formed on the membranaceous part of the stomach were examined under microscope. The evaluation was made in relation to the control group and the ED50 values were determined. The sizes of the ulcers were expressed as score values from 0.5 to 32.
# [7] = tested on: indomethacin-induced gastric ulcer; test: Inhibition of the indomethacin-induced gastric ulcer; type: in vivo, female RG-Wistar rats
# Procedure: After being starved for 24 hours, female RG-Wistar rats were orally treated with the compounds to be tested and then orally with 20 mg/kg of indomethacin after 30 minutes. The evaluation was carried out in relation to the control group and the ED50 values were determined.
# [8] = tested on: gastric ulcer induced by Aspirin plus stress; test: Inhibition of the gastric ulcer induced by Aspirin plus stress; type: in vivo, female RG-Wistar rats
# Procedure: After being starved for 24 hours, female RG-Wistar rats weighing 120 to 150 g were orally treated with the compound to be tested and then orally with Aspirin. The animals were sensitized by the aspirin pretreatment and a strong ulceration was induced in the glandular part of stomach of the animals by a subsequent stress (fastening, ducking in water of 22° C. temperature). The ulceration was evaluated as score values from 0 to 2.
# [9] = tested on: acetic acid-induced chronic ulcer; test: Recovery-influencing effect on the acetic acid-induced chronic ulcer; type: in vivo, female RG-Wistar rats
# Procedure: After anaesthesia by ether and laparotomy, 50 μl of 20% acetic acid were injected into the stomach wall of female RG-Wistar rats. After 5 days the animals were orally treated with the compounds to be tested daily twice for 15 days. On the 16th day the animals were killed by ether and the size of the ulcers appearing on the stomach was measured. The grade of recovery was defined in relation to the control group.
# Acute toxicity, rat = conditions: in vivo
# Procedure: These investigations were carried out in OFI mice and OFA rats after starving for 24 hours. Ten animals were used for each dose. The number of doses was 3 or 4.
smiles,measurement,setting,value
"Cc1cc(=O)[nH]c(SCc2ccccc2N(C)C)n1 [Example 1, 2-(2-dimethylaminobenzyl)thio-6-methyl-4(3H)-pyrimidinone]","Gastric juice, treated",[1]; 10 mg/kg p.o.,6.76 mL
same,"Gastric acid, change",[1]; 10 mg/kg p.o.,-28.2%
same,"Gastric juice, change",[1]; 10 mg/kg p.o.,-10.6%
same,"Gastric acid, treated",[1]; 10 mg/kg p.o.,2.45 mL
same,"Gastric juice, treated",[1]; 20 mg/kg p.o.,6.15 mL
same,"Gastric acid, change",[1]; 20 mg/kg p.o.,-65.1%
same,"Gastric juice, change",[1]; 20 mg/kg p.o.,-12.9%
same,"Gastric acid, treated",[1]; 20 mg/kg p.o.,1.17 mL
same,"Gastric juice, treated",[1]; 40 mg/kg p.o.,4.51 mL
same,"Gastric acid, change",[1]; 40 mg/kg p.o.,-92.4%
same,"Gastric juice, change",[1]; 40 mg/kg p.o.,-34.4%
same,"Gastric acid, treated",[1]; 40 mg/kg p.o.,0.22 mL
same,"inhibitor effect on gastric acid secretion, in words",[1]; compared with reference drugs,equiactive to the NC-1300 reference drug
same,ED50,"[1]; po, gastric acid, Shay rat",15 mg/kg
same,"Gastric acid, treated",[2]; 6.25 mg/kg i.p.,3.41 mL
same,"Gastric acid, change",[2]; 6.25 mg/kg i.p.,-42%
same,"Gastric juice, change",[2]; 6.25 mg/kg i.p.,-44%
same,"Gastric juice, treated",[2]; 6.25 mg/kg i.p.,2.14 mL
same,"Gastric acid, treated",[2]; 12.5 mg/kg i.p.,1.90 mL
same,"Gastric acid, change",[2]; 12.5 mg/kg i.p.,-68%
same,"Gastric juice, change",[2]; 12.5 mg/kg i.p.,-64%
same,"Gastric juice, treated",[2]; 12.5 mg/kg i.p.,1.38 mL
same,"Gastric acid, treated",[2]; 25 mg/kg i.p.,0.66 mL
same,"Gastric acid, change",[2]; 25 mg/kg i.p.,-89%
same,"Gastric juice, change",[2]; 25 mg/kg i.p.,-87%
same,"Gastric juice, treated",[2]; 25 mg/kg i.p.,0.49 mL
same,ED50,"[2]; Rattus norvegicus, ip, histamine-induced, dose column i.p.",6.8 mg/kg
same,"Gastric acid, treated",[3]; 6.25 mg/kg i.p.,1.79 mL
same,"Gastric acid, change",[3]; 6.25 mg/kg i.p.,-34%
same,"Gastric juice, change",[3]; 6.25 mg/kg i.p.,-31%
same,"Gastric juice, treated",[3]; 6.25 mg/kg i.p.,1.26 mL
same,"Gastric acid, treated",[3]; 12.5 mg/kg i.p.,1.21 mL
same,"Gastric acid, change",[3]; 12.5 mg/kg i.p.,-55%
same,"Gastric juice, change",[3]; 12.5 mg/kg i.p.,-51%
same,"Gastric juice, treated",[3]; 12.5 mg/kg i.p.,0.90 mL
same,"Gastric acid, treated",[3]; 25 mg/kg i.p.,0.51 mL
same,"Gastric acid, change",[3]; 25 mg/kg i.p.,-81%
same,"Gastric juice, change",[3]; 25 mg/kg i.p.,-78%
same,"Gastric juice, treated",[3]; 25 mg/kg i.p.,0.41 mL
same,ED50,"[3]; Rattus norvegicus, ip, pentagastrin-induced, dose column i.p.",9.5 mg/kg
same,"Gastric acid, treated",[4]; 12.5 mg/kg i.p.,2.14 mL
same,"Gastric acid, change",[4]; 12.5 mg/kg i.p.,-22%
same,"Gastric juice, change",[4]; 12.5 mg/kg i.p.,-20%
same,"Gastric juice, treated",[4]; 12.5 mg/kg i.p.,1.65 mL
same,"Gastric acid, treated",[4]; 20 mg/kg i.p.,0.90 mL
same,"Gastric acid, change",[4]; 20 mg/kg i.p.,-67%
same,"Gastric juice, change",[4]; 20 mg/kg i.p.,-66%
same,"Gastric juice, treated",[4]; 20 mg/kg i.p.,0.71 mL
same,"Gastric acid, treated",[4]; 25 mg/kg i.p.,0.37 mL
same,"Gastric acid, change",[4]; 25 mg/kg i.p.,-87%
same,"Gastric juice, change",[4]; 25 mg/kg i.p.,-83%
same,"Gastric juice, treated",[4]; 25 mg/kg i.p.,0.34 mL
same,ED50,"[4]; Rattus norvegicus, ip, carbachol-induced, dose column i.p.",16.5 mg/kg
same,"Bleedings, treated",[5]; 10 mg/kg p.o.,62.0 mm
same,"Bleedings, change",[5]; 10 mg/kg p.o.,-38.7%
same,"Bleedings, treated",[5]; 20 mg/kg p.o.,42.1 mm
same,"Bleedings, change",[5]; 20 mg/kg p.o.,-56.9%
same,"Bleedings, treated",[5]; 40 mg/kg p.o.,10.9 mm
same,"Bleedings, change",[5]; 40 mg/kg p.o.,-89.6%
same,ED50,"[5]; po, cytoprotection",14.5 mg/kg
same,ED50,[6]; read-out: ED50 related to the number of ulcers,3.3 mg/kg
same,ED50,[6]; read-out: ED50 related to the occurrance of ulcers,9 mg/kg
same,ED50,[6]; read-out: ED50 related to the severity of ulcers,3.7 mg/kg
same,"ulcer inhibition, in words",[6]; compared with reference drugs,significantly stronger inhibited
same,ED50,"[7]; Rattus norvegicus, po, indomethacin 20 mg/kg orally",8.2 mg/kg
same,"ulcer inhibition, in words",[7]; compared with reference drugs,significantly stronger inhibited
same,ED50,"[8]; Rattus norvegicus, po, Aspirin plus stress",7.3 mg/kg
same,"ulcer inhibition, in words",[8]; compared with reference drugs,significantly stronger inhibited
same,increase in the recovery,"[9]; 15 mg/kg oral dose, daily twice for 15 days",45%
same,"recovery from developed gastric ulcers, in words",[9]; compared with reference drug,better results were achieved in the recovery from developed gastric ulcers
same,LD50,"Acute toxicity, rat; ip, female rat",430 mg/kg
same,LD50,"Acute toxicity, rat; ip, male rat",450 mg/kg
same,LD50,"Acute toxicity, rat; po, female rat, precision restricted by solubility",2400 mg/kg
same,LD50,"Acute toxicity, rat; po, male rat, precision restricted by solubility",> 3000 mg/kg
